Measured values taken from patent EP1279727A1, “TRANSFORMATION AND MODIFICATION OF NATURAL DRUG BY INTESTINAL PROBIOTIC FERMENTATIVE CULTURE” (Wu, Bingxin, priority 2000, dated 2002).
Where two headings read alike, the source gives them in different places.

Legend:
S180 sacoma = conditions: S180 mouse, positive control CTX subcutaneously
Experimental: (§1) Using species Kunming mouse subcutaneously grafted S180 sacoma or H22 hepatocarcinoma as cancer-harboring model animal, the inhibition activity on growth of cancer is observed with respect to extract of anti-cancer natural medicines which converted or unconverted by the above intestinal probiotics in either large dose or small dose.
(§2) For this purpose, 120 mice weighed from about 18-25g are grafted subcutaneously at right axilla with 1 x 10^7 cells/ml of S180 sacoma or H22 hepatocarcinoma (0.2ml/mouse) in order to obtain solid tumor model animal. The resultant model animal is grouped randomly into 12 groups. Each animal in treatment group is orally administrated with unfermented (in 1:1 dilution) or fermented (in 1:4 dilution) extract of natural medicines daily.
(§3) The administration of extract of natural medicine starts at the forth day from the date grafting cancer cells, i.e., the time when solid tumor can be touched by hand. After continuously administration over 10 days, the weight of animal and solid tumor are measured, respectively, and then inhibition rate of cancer can be calculated accordingly. The treatment experiments on the two types of cancer are carried out in triplicate.

H22 hepatocarcinoma [1] = conditions: H22 mouse, positive control CTX subcutaneously
Experimental: as §1, §2, §3

H22 hepatocarcinoma [2] = assay type: in vivo; conditions: H22 mouse, single therapy (subgroup 2 preparation alone; subgroup 3 5-Fu 15 mg/kg alone), 7 days
Experimental: 1. […] The resultant model mouse is grouped randomly into eight groups.
Each mouse in first four groups is treated for observing effect of the present natural medicine preparation on the efficiency of anti-cancer chemical agent, fliorouracil (5-Fu, 15 mg/kg), mice in the rest four groups is for the effect of the present compositions on the efficiency of radiotherapy for cancer (^60Co irradiation on whole body, 4.5 Gray /day/animal).
The combination therapy to both animal groups (4 subgroups in each group) starts from the next day of grafting tumor cells and continues for 7 days.
The synergetic effect of the present composition on chemical therapy or radiotherapy for cancer is calculated by the inhibition rate according to the following Burgi's correction equation: Q= E (A+B)/EA+EB-EAxEB [formula] wherein, E (A+B) is the cancer inhibition rate of the combined therapy, EA and EB are the cancer inhibition rate of the present composition administration, or the chemical therapy (or radiotherapy) alone.
Result: (1) If Q calculated is lower than 0.85, it is considered as an antergenic effect between combined therapy; (2) if Q is between 0.85 and 1.15, it is considered as an addictive effect; and (3) if Q is above 1.15, then it is deemed as synergetic effect between combined therapy. The particular results are listed in table 3 and table 4, respectively.

Row | SMILES | animal weight before ad. (S180 sacoma) | animal weight after ad. (S180 sacoma; after 10 days) | inhibition rate (S180 sacoma; after 10 days) [%] | solid tumor weight (X±SD) (S180 sacoma; after 10 days) | animal weight before ad. (H22 hepatocarcinoma [1]) | animal weight after ad. (H22 hepatocarcinoma [1]; after 10 days) | inhibition rate (H22 hepatocarcinoma [1]; after 10 days) [%] | solid tumor weight (X±SD) (H22 hepatocarcinoma [1]; after 10 days) | inhibition rate (H22 hepatocarcinoma [2]) [%] | tumor weight (X±SD) (H22 hepatocarcinoma [2])
1 | O=P1(N(CCCl)CCCl)NCCCO1 (stereo not shown) [positive control, cyclophosphamide] | 20.1 | 21.2 | 61.0 | 0.55±0.19 | 21.2 | 27.9 | 62.4 | 0.72±0.36 |  | 
2 | O=c1[nH]cc(F)c(=O)[nH]1 [5-Fu, fliorouracil] |  |  |  |  |  |  |  |  | 56.7 | 1.06±0.31
